Laboratory results as given in patent US11034692B1 (Genentech, Inc., priority 2017, dated 2021).
Read-outs that look alike come from different tables or passages of the source.

Target: HPK1
Experiment: HPK1 Lantha Binding Assay ("Lanth")
Summary of the method: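 TR-FRET tracer displacement with 2 nM GST-tagged kinase, 2 nM Eu-anti-GST antibody and 15 nM Tracer222 at 23 C. Enzyme–antibody preincubated 1 h with compound, then tracer added for 1 h; 340 nm excitation, 615/665 nm emission. Ki from Morrison fit over an 11-point 5-fold dilution.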

[1] = Table B1-1, read-out: HPK1 Ki (μM) (Lanth)
[2] = Table B1-2, read-out: HPK1 Ki, L = Lanth

Structure (SMILES) | Ki [1] [nM] | Ki [2] [nM]
Cc1c(N)cncc1-c1cc2cc(NC(=O)[C@H]3C[C@@H]3C#N)ncc2c(N)n1 [Compound 200, (1S,2S)—N-(8-amino-6-(5-amino-4-methylpyridin-3-yl)-2,7-naphthyridin-3-yl)-2-cyanocyclopropane-1-carboxamide] | 0.343 | –
Nc1nc(N2CCOC2=O)cc2cc(NC(=O)C3CC3)ncc12 [Compound 40, N-(8-amino-6-(2-oxooxazolidin-3-yl)-2,7-naphthyridin-3-yl)cyclopropanecarboxamide] | 98 | –
Nc1nc(-c2cnccc2CO)cc2cc(NC(=O)[C@@H]3C[C@@H]3F)ncc12 [Compound 44, (1S,2S)—N-(8-amino-6-(4-(hydroxymethyl)pyridin-3-yl)-2,7-naphthyridin-3-yl)-2-fluorocyclopropanecarboxamide] | 48 | –
Cn1cc(-c2cc3cc(NC(=O)[C@@H]4C[C@@H]4F)ncc3c(N)n2)cn1 [Compound 7, (1S,2S)—N-(8-amino-6-(1-methyl-1H-pyrazol-4-yl)-2,7-naphthyridin-3-yl)-2-fluorocyclopropanecarboxamide] | 2.89 | –
Cc1ccncc1-c1cc2cc(NC(=O)C3CC3(C)CO)ncc2c(N)n1 (centres unmarked) [Compound 209, N-(8-amino-6-(4-methylpyridin-3-yl)-2,7-naphthyridin-3-yl)-2-(hydroxymethyl)-2-methylcyclopropanecarboxamide] | 30.7 | –
Cc1ccncc1-c1cc2cc(NC(=O)C3CC3(F)F)ncc2c(N)n1 (centres unmarked) [Compound 11, N-(8-amino-6-(4-methylpyridin-3-yl)-2,7-naphthyridin-3-yl)-2,2-difluorocyclopropanecarboxamide] | 3.65 | –
Cc1ccnc(-c2ccccc2)c1-c1cc2cc(NC(=O)[C@H]3C[C@@H]3c3cnn(C)c3)ncc2c(N)n1 [Compound 318, (1S,2S)—N-(8-amino-6-(4-methyl-2-phenylpyridin-3-yl)-2,7-naphthyridin-3-yl)-2-(1-methyl-1H-pyrazol-4-yl)cyclopropanecarboxamide] | 0.032 | –
CCc1ccncc1-c1cc2cc(NC(=O)NCc3cncs3)ncc2c(N)n1 [Compound 30, 1-[8-amino-6-(4-ethyl-3-pyridyl)-2,7-naphthyridin-3-yl]-3-(thiazol-5-ylmethyl)urea] | 1.75 | –
Cc1cc(-c2ncco2)ncc1-c1cc2cc(NC(=O)[C@@H]3C[C@H]3c3cnn(C)c3)ncc2c(N)n1 [Compound 309, (1R,2R)—N-[8-amino-6-[4-methyl-6-(1,3-oxazol-2-yl)pyridin-3-yl]-2,7-naphthyridin-3-yl]-2-(1-methyl-1H-pyrazol-4-yl)cyclopropane-1-carboxamide] | 0.184 | –
Cc1c(N)cncc1-c1cc2cc(NC(=O)[C@@H]3C[C@H]3C#N)ncc2c(N)n1 [Compound 199, (1R,2R)—N-(8-amino-6-(5-amino-4-methylpyridin-3-yl)-2,7-naphthyridin-3-yl)-2-cyanocyclopropane-1-carboxamide] | 3.39 | –
Cc1ccncc1-c1cc2cc(NC(=O)C(C)(C)C#N)ncc2c(N)n1 [Compound 35, N-(8-amino-6-(4-methylpyridin-3-yl)-2,7-naphthyridin-3-yl)-2-cyano-2-methylpropanamide] | 5540 | –
COCc1cccc(C)c1-c1cc2cc(NC(=O)[C@@H]3C[C@H]3c3cnn(C)c3)ncc2c(N)n1 [Compound 428, (1R,2R)-N-(8-amino-6-(2-(methoxymethyl)-6-methylphenyl)-2,7-naphthyridin-3-yl)-2-(1-methyl-1H-pyrazol-4-yl)cyclopropane-1-carboxamide] | – | 8
CCc1ccncc1-c1cc2cc(Nc3cnn(C)c3)ncc2c(N)n1 [Compound 74, 3-(4-Ethylpyridin-3-yl)-N6-(1-methyl-1H-pyrazol-4-yl)-[2,7]naphthyridine-1,6-diamine] | 1.3 | –
Cc1ccncc1-c1cc2cc(Nc3cnn(C(C)(C)CO)c3)ncc2c(N)n1 [Compound 266, 2-(4-[[8-amino-6-(4-methylpyridin-3-yl)-2,7-naphthyridin-3-yl]amino]-1H-pyrazol-1-yl)-2-methylpropan-1-ol] | 0.118 | –
Cn1cc([C@H]2C[C@@H]2C(=O)Nc2cc3cc(-c4c(F)cccc4Cl)nc(N)c3cn2)cn1 [Compound 303, (1S,2S)—N-(8-amino-6-(2-chloro-6-fluorophenyl)-2,7-naphthyridin-3-yl)-2-(1-methyl-H-pyrazol-4-yl)cyclopropanecarboxamide] | 0.027 | –

Continued, values first:

Ki [1] [nM] | Ki [2] [nM] | Structure (SMILES)
< 0.02 | – | COCCn1cc([C@@H]2C[C@H]2C(=O)Nc2cc3cc(-c4cnccc4C)nc(N)c3cn2)cn1 [Compound 330, (1R,2R)—N-(8-amino-6-(4-methylpyridin-3-yl)-2,7-naphthyridin-3-yl)-2-(1-(2-methoxyethyl)-1H-pyrazol-4-yl)cyclopropanecarboxamide]
34.1 | – | CCc1ccncc1-c1cc2cc(NC(=O)N(C)C)ncc2c(N)n1 [Compound 33, 3-[8-amino-6-(4-ethyl-3-pyridyl)-2,7-naphthyridin-3-yl]-1,1-dimethyl-urea]
0.6 | – | CCc1ccncc1-c1cc2cc(Nc3cc[nH]n3)ncc2c(N)n1 [Compound 77, 3-(4-Ethylpyridin-3-yl)-N6-(1H-pyrazol-3-yl)-[2,7]naphthyridine-1,6-diamine]
21 | – | CC(=O)Nc1cc2c(F)c(-c3cnccc3C)nc(N)c2cn1 [Compound 156, N-(8-amino-5-fluoro-6-(4-methylpyridin-3-yl)-2,7-naphthyridin-3-yl)acetamide]
0.0219 | – | Cc1c(N)cncc1-c1cc2cc(NC(=O)[C@H]3C[C@@H]3CC#N)ncc2c(N)n1 [Compound 247, (1S,2R)—N-[8-amino-6-(5-amino-4-methylpyridin-3-yl)-2,7-naphthyridin-3-yl]-2-(cyanomethyl)cyclopropane-1-carboxamide]
26.4 | – | CCc1ccncc1-c1cc2cc(NC(=O)CC#N)ncc2c(N)n1 [Compound 32, N-[8-amino-6-(4-ethyl-3-pyridyl)-2,7-naphthyridin-3-yl]-2-cyano-acetamide]
0.694 | – | Cc1ccncc1-c1nc(N)c2cnc(NC(=O)[C@H]3C[C@@H]3c3cnn(C)c3)cc2c1Cl [Compound 233, (1S,2S)—N-(8-amino-5-chloro-6-(4-methylpyridin-3-yl)-2,7-naphthyridin-3-yl)-2-(1-methyl-1H-pyrazol-4-yl)cyclopropanecarboxamide]
1.03 | – | Cc1c(N)cncc1-c1cc2cc(NC(=O)[C@@H]3C[C@H]3CC#N)ncc2c(N)n1 [Compound 248, (1R,2S)—N-[8-amino-6-(5-amino-4-methylpyridin-3-yl)-2,7-naphthyridin-3-yl]-2-(cyanomethyl)cyclopropane-1-carboxamide]
22.6 | – | N#Cc1ccncc1-c1cc2cc(NC(=O)[C@@H]3C[C@@H]3F)ncc2c(N)n1 [Compound 15, (1S,2S)—N-(8-amino-6-(4-cyanopyridin-3-yl)-2,7-naphthyridin-3-yl)-2-fluorocyclopropanecarboxamide]
1.3 | – | CCc1ccncc1-c1cc2cc(NC(=O)N[C@H]3C[C@@H](O)C3)ncc2c(N)n1 [Compound 109, 1-[8-amino-6-(4-ethyl-3-pyridyl)-2,7-naphthyridin-3-yl]-3-(cis-3-hydroxycyclobutyl)urea]
21.5 | – | CCc1ccncc1-c1cc2cc(NC(=O)Cc3ccn[nH]3)ncc2c(N)n1 [Compound 102, N-(8-amino-6-(4-ethylpyridin-3-yl)-2,7-naphthyridin-3-yl)-2-(1H-pyrazol-5-yl)acetamide]
10.2 | – | Cc1cc(-c2cnn(C)c2)ncc1-c1cc2cc(NC(=O)[C@@H]3C[C@H]3CC#N)ncc2c(N)n1 [Compound 237, (1R,2S)—N-(8-amino-6-(4-methyl-6-(1-methyl-1H-pyrazol-4-yl)pyridin-3-yl)-2,7-naphthyridin-3-yl)-2-(cyanomethyl)cyclopropanecarboxamide]
0.522 | – | Cc1ccncc1-c1nc(N)c2cnc(NC(=O)[C@@H]3C[C@H]3CC#N)cc2c1C1CC1 [Compound 316, (1R,2S)—N-(8-amino-5-cyclopropyl-6-(4-methylpyridin-3-yl)-2,7-naphthyridin-3-yl)-2-(cyanomethyl)cyclopropanecarboxamide]
0.65 | – | Cn1cc([C@@H]2C[C@H]2C(=O)Nc2cc3cc(-c4c(F)cccc4Cl)nc(N)c3cn2)cn1 [Compound 302, (1R,2R)—N-(8-amino-6-(2-chloro-6-fluorophenyl)-2,7-naphthyridin-3-yl)-2-(1-methyl-1H-pyrazol-4-yl)cyclopropanecarboxamide]
0.21 | – | CCc1ccncc1-c1cc2cc(NC(=O)C3CC3)ncc2c(N)n1 [Compound 26, N-(8-amino-6-(4-ethylpyridin-3-yl)-2,7-naphthyridin-3-yl)cyclopropanecarboxamide]
36.7 | – | Cc1cc(Nc2cc3cc(-c4cnccc4C)nc(N)c3cn2)n(CCO)n1 [Compound 261, 2-(5-[[8-amino-6-(4-methylpyridin-3-yl)-2,7-naphthyridin-3-yl]amino]-3-methyl-1H-pyrazol-1-yl)ethan-1-ol]
545 | – | CCc1ccncc1-c1cc2cc(NC(=O)C3=CC3)ncc2c(N)n1 [Compound 68, N-[8-amino-6-(4-ethyl-3-pyridyl)-2,7-naphthyridin-3-yl]cyclopropene-1-carboxamide]
– | 0.02 | Cc1cccc(F)c1-c1cc2cc(Nc3cc4n(n3)CC(=O)N(C)CC4)ncc2c(N)n1 [Compound 426, 2-((8-amino-6-(2-fluoro-6-methylphenyl)-2,7-naphthyridin-3-yl)amino)-6-methyl-5,6-dihydro-4H-pyrazolo[1,5-d][1,4]diazepin-7(8H)-one]
0.55 | – | Cc1ccncc1-c1cc2cc(NC(=O)[C@@H]3C[C@H]3c3cnn(C)c3)ncc2c(N)n1 [Compound 198, (1R,2R)—N-(8-amino-6-(4-methylpyridin-3-yl)-2,7-naphthyridin-3-yl)-2-(1-methyl-H-pyrazol-4-yl)cyclopropane-1-carboxamide]
20.4 | – | Cc1cc(-c2ccccc2)ncc1-c1cc2cc(NC(=O)[C@@H]3C[C@H]3CC#N)ncc2c(N)n1 [Compound 334, (1R,2S)—N-[8-amino-6-(4-methyl-6-phenylpyridin-3-yl)-2,7-naphthyridin-3-yl]-2-(cyanomethyl)cyclopropane-1-carboxamide]
